Measurements from US5985885A, “Quinazoline-4-amino-2-(piperidine-1-yl-4-substituted) derivatives having antihypertensive activity, a method for their preparation and their pharmaceutical use” (priority 1996, dated 1999).
pIC50: −log10 of the molar value.

Key:
[1] = target: alpha1A + alpha1C adrenergic receptor (human prostate); experiment: [3H]-prazosin binding in human prostate; details: alpha1A + alpha1C subtype, pH 7.5, 30 min, 25° C., read-out: Inhibition of the binding of [3H]-prazosin IC50
[2] = target: T1, alpha1B adrenergic receptor (rat liver) (Rattus norvegicus, UniProt P15823); experiment: [3H]-prazosin binding in rat liver
T1 sequence (P15823 1-515): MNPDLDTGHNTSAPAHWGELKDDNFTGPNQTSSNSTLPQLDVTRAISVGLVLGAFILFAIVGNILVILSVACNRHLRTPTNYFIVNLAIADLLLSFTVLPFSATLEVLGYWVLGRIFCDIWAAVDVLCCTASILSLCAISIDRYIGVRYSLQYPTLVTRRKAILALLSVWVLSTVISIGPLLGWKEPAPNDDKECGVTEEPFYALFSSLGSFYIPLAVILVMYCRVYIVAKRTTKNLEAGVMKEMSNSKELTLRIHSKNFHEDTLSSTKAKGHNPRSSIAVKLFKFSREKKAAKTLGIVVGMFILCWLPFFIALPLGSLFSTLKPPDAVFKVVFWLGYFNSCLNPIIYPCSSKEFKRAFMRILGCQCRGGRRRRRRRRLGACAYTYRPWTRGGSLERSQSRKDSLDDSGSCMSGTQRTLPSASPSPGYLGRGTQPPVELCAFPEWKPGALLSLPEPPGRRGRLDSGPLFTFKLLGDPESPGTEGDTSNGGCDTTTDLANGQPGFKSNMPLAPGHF

[3] = target: T2, alpha1A adrenergic receptor (rat GSM) (Rattus norvegicus, UniProt P43140); experiment: [3H]-prazosin binding in rat submaxillary glands (GSM); details: alpha1A subtype, pH 7.4, 45 min, 25° C., read-out: Inhibition of the binding of [3H]-prazosin IC50
T2 sequence (P43140 1-466): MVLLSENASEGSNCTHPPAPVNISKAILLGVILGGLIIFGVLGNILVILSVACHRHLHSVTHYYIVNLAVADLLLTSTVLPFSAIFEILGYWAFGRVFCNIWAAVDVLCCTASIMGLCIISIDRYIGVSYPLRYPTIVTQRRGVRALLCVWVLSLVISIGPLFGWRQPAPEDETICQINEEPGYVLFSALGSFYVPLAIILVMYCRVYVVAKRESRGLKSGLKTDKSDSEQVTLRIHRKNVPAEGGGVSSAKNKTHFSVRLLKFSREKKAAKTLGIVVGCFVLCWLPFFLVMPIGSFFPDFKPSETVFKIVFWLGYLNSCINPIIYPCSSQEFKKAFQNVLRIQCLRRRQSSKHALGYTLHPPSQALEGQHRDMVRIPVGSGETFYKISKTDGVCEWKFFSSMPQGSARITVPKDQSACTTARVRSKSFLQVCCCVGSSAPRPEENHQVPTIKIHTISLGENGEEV

[4] = system: alpha1A, alpha1B and alpha1C adrenergic receptor subtypes; experiment: [3H]-prazosin binding, alpha1 subtypes together (Table 3 overall); details: reference compounds versus compounds of the invention/prazosin
[5] = target: T3, 5-HT2 receptors (isolated rabbit aorta) (Oryctolagus cuniculus, UniProt G1SYA7); experiment: Antagonism of serotonin-induced contraction of isolated rabbit aorta; details: isolated rabbit aorta, 37° C., compound 10 min before agonist; limits (p < 0.05)
T3 construct: Four rings formed from rabbit aorta were joined together to form a chain; from tissue; host or cells: isolated rabbit aorta rings
T3 sequence (G1SYA7 1-469): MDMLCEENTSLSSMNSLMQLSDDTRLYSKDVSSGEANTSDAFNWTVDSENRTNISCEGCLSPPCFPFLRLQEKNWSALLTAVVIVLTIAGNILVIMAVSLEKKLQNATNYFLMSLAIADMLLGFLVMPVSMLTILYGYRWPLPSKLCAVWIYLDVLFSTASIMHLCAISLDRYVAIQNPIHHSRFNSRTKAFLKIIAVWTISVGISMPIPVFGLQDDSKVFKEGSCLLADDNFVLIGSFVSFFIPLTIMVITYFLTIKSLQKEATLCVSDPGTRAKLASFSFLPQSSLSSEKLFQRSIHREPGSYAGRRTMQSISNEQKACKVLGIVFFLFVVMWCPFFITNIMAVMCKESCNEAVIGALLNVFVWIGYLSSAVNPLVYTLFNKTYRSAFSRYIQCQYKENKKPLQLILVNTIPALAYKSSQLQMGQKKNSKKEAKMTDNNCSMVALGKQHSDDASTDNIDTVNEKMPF
Experimental: The antagonist activity of some of the compounds of the invention on the contractile activity of seratonin on isolated rabbit aorta, effected principally by way of the 5-HT2 receptors, is reported here by way of example. The method of Feniuk et al [Br. J. Pharmacol. (1985), 86, 697-704] was used, with slight modifications. Four rings formed from rabbit aorta were joined together to form a chain; the preparation was placed in an isolated organ bath in the presence of Krebs at 37° C. and attached to an isometric transducer, a tension of 2 g being applied and oxygenation was carried out continuously with O2 --CO2 (95-5 v/v). A seratonin concentration(0.3 μM) was used that was capable of causing sub-maximal contraction of the preparation. […] The results obtained in this way are given in Table 4 below which, for several of the compounds of the invention gives IC50 values calculated by the regression method on a set of at least 2 experiments at 5 different concentrations for each of the compounds examined, these being compared with values obtained for several reference compounds.

## O=C(c1ccc(F)cc1)C1CCN(CCn2c(=O)[nH]c3ccccc3c2=O)CC1 [Ketanserine, reference compound]
[1]
  pIC50: 6.57
[2]
  pIC50: 7.52
[3]
  pIC50: 7.32
[4]
  times less powerful (on average): 10 to 30 times
[5]
  pIC50: 6.64
